Assay results: patent US10786475B2, “Method for preventing, treating, or improving fatty liver by administering effective amounts of azelaic acid to a subject” (Korea University Research and Business Foundation, priority 2018, dated 2020)

Experiments:
[1] = tested on: Hepa1c1c-7 cells stimulated by LPS; assay: GPCR 10-pathway reporter assay in LPS-induced Hepa1c1c-7 cells; type: cell-based, mouse; details: 100 ng/mL LPS 1 hour, then 50 μM AzA 6 hours
Experimental: Mouse hepatocytes, i.e., Hepa1c1c-7 cells were seeded on a 96 well-plate at 1×10^4 cells/well and cultured for 24 hours, and transfected with a construct including a transcription factor promoter and a luciferase for 8 hours. The experiment was performed on two groups, i.e., a group with inflammation in hepatocytes caused by LPS and a group not being treated with LPS. In the non-treated control, 50 μM of AzA was treated for 6 hours, and in the experimental group, inflammation was induced by treating 100 ng/mL of LPS, the inflammation-inducing material, for 1 hour, and then 50 μM of AzA was treated for 6 hours. As a result, downstream pathway, which was activated by an AzA, was confirmed. To confirm a mechanism of an anti-inflammatory effect of an AzA, 10 transcription factors for signal transduction of GPCR were analyzed. […] Based on the Olfr544-cAMP-CREB signal transduction process of an AzA, the change of a complicated downstream signal transduction pathway system in response to GPCR activation and inhibition was examined using 10 types of transcription factors through a GPCR 10-pathway reporter assay. A GPCR 10-signal transduction pathway measurement is a method for assessing a representative signal pathway of GPCR using a reporter gene assay method, and the change of a complicated downstream signal transduction pathway system in response to the activation and inhibition of GPCR can be assessed using 10 types of transcription factors. A GPCR Signaling 10-pathway Reporter Array (QIAGEN, Netherlands) used in this example includes a transcription factor inducing downstream signal transduction and a firefly luciferase construct in each experimental group, and is based on a principle, in which luciferase activity is measured by continuously expressing a Renilla luciferase construct. The 10 types of transcription factors are as follows: ATF2/ATF3/ATF4, CREB, ELK1/SRF, FOS/JUN, MEF2, GLI, FOXO, STAT3, NFAT, and NFκB. In this example, the luciferase activity was measured using a dual luciferase assay kit (Promega, USA) and Victor™ X2 (PerkinElmer, CA, USA).

[2] = tested on: Olfr544; assay: cAMP, calcium and PKA activity in Hepa1c1c-7 cells (Olfr544 activation); type: cell-based, mouse
Experimental: A cAMP assay estimates a production level of cAMP, which is a secondary messenger material of a GPCR receptor activated by a ligand, using a cAMP standard calibration curve. A 96 well-plate included in a cAMP Assay ELISA kit (Enzo Life science, New York, USA) was coated with a GxR IgG antibody, and cAMP in a blue solution for plotting the standard calibration curve, binds with alkaline phosphatase and turns into yellow color by the rabbit antibody. When pNpp substrate is added into the wells bound with cAMP, alkaline phosphatase is activated to cause the color changes, and a cAMP concentration may be measured through colorimetric quantification at a wavelength of 405 nm. In this experiment, Hepa1c1c-7 cells were seeded on a 96-well plate at 1×10^4 cells/well for differentiation, and treated with 50 μM of AzA and 1 μM of Forskolin (FSK), which is a positive control, for 18 hours, and then a cAMP concentration was measured according to the above-described method.

[3] = tested on: LPS mouse; assay: LPS-induced inflammation in C57BL/6J male mouse, liver gene expression; type: in vivo; details: AzA 100 mg/kg, LPS 10 mg/kg intraperitoneally, liver 16 hours after LPS
Experimental: Eight-week-old C57BL/6J male […] were purchased from Samtako (Gyeonggi-do, Korea). All experiments were carried out according to protocols approved by the Animal Experiment Committee of Korea University (Protocol No. KUIACUC-20090420-4). Mice were maintained under a 12-hour photoperiod at 21 to 25° C. and relative humidity of 50% to 60%. In normal groups and LPS-induced groups, 100 μL of deionized water was administered to each mouse using an oral sonde for 4 days, and 100 μL of LPS was intraperitoneally injected at a dose of 10 mg/kg one hour after the administration with deionized water on the last day, Day 4. In a group into which LPS was administered after the AzA administration, each mouse was orally administered 100 μL of AzA at a dose of 100 mg/kg for 4 days, and intraperitoneally injected with 100 μL of 10 mg/kg LPS one hour after the AzA administration on the last day, Day 4. Sixteen hours after the LPS intraperitoneal injection, the mice were anesthetized with avertin, and dissected to extract liver tissue. The liver tissue was obtained, immediately stored in liquid nitrogen, and then stored at −80° C.
1 μg of RNA extracted from the stored liver tissue was used to synthesize cDNA using a ReverTra Ace® qPCR RT kit (TOYOBO, Osaka, Japan). […]

[4] = tested on: Hepa1c1c-7 cells; assay: MTT cytotoxicity assay in Hepa1c1c-7 cells; type: cell-based, mouse; details: 0 to 500 μM AzA, 24 hours, compared with control group

## O=C(O)CCCCCCCC(=O)O [AzA, nonanedioic acid]
[1]
  CREB transcription factor activity (cAMP/PKA pathway): significant activities
  ELK1/SRF transcription factor activity (MAPK/ERK pathway): significant activities
  STAT3 transcription factor activity (IL-6 signaling pathway): significant activities
[2]; 50 μM AzA, 18 hours, compared with control group
  cAMP concentration in the cells: significantly increased
[2]; AzA treatment
  PKA activity: significantly increased
[2]; compared with control group
  calcium concentration in the cells: significantly increased
[3]
  gene expression levels of inflammatory cytokines IL-6 and TNF-α in liver tissue: tendency of reduction in inflammatory responses
[4]
  cytotoxicity (MTT assay): toxicity was not exhibited at every concentration
